Reference: PMC8960621, “Solution speciation and human serum protein binding of indium(III) complexes of 8-hydroxyquinoline, deferiprone and maltol” (Journal of Biological Inorganic Chemistry, 2022)
Values joined by “and” are separate entries in the source; they are usually repeats but may differ in a detail not shown here. Equal values may be shown once.

Key:
[1] = Speciation in threefold diluted human blood serum by UV-vis; assay type: in vitro ADME; settings: 10 µM complex
Description: With this knowledge, samples prepared in blood serum were studied by UV–vis spectrometry to count the significance of HMM and LMM serum components in the speciation of the complexes (Figs. 9 and S8). Unfortunately, fluorescence spectra could not be recorded due to the significant light scattering of the samples. […] UV–vis spectra in Fig. 9 resemble the behaviour observed for the complex – HSA – Tf ternary systems (Fig. S7) with some important differences. […] This refers to the altered coordination sphere of the metal complex. […] Keeping in mind the difficulties of interpretation of UV–vis spectroscopic data obtained in complex matrices, some assumptions can be made relying on the results of binary and ternary systems. Significant Tf binding of In(III) in blood serum is likely, while GaQ3 interacts less with this protein. […] Formation of HQ – Mg(II) complex is not feasible even at physiological Mg(II) ion levels (0.7–1.0 mM) based on the available stability constants. Zn(II) ion forms higher stability complexes with HQ as Mg(II) and could compete for HQ with In(III) or Ga(III) if its total blood plasma concentration (10–28 μM) would be freely available. […]
For (apo)Tf containing samples, complex concentrations were 20 μM and 0–2.5 equiv. protein was added. Reference spectra for the complexes, ligands and protein were recorded as well. […]

[2] = target: T1, human serum albumin (HSA) (Homo sapiens, UniProt P02768); assay: HSA binding by steady-state spectrofluorometry (complex fluorescence and Trp-214 quenching)
T1 construct: purchased Sigma-Aldrich A8763
T1 sequence (P02768 25-609): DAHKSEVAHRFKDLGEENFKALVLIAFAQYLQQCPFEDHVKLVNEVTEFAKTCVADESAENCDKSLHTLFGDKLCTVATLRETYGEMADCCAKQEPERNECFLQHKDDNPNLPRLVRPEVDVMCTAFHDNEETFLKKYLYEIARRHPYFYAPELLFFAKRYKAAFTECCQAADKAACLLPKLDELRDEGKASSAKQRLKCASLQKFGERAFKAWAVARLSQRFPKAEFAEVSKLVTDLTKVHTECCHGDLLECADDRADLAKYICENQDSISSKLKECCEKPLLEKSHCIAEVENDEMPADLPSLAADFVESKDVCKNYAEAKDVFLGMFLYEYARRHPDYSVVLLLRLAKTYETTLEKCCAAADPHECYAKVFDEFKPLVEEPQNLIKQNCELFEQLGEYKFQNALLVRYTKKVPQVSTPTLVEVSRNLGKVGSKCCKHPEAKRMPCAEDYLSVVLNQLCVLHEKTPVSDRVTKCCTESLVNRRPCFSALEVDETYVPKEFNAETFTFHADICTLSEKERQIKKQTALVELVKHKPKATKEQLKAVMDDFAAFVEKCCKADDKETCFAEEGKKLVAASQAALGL
Description: The effect of HSA on the intrinsic fluorescence of InQ3 and InD3 was studied. Similarly to GaQ3 and tris(8-hydroxy-quinolinato)Al(III), InQ3 and InD3 are also fluorescent metal complexes (see Table 2 for λmax values). […] The fluorescence intensity of InQ3 increased in the presence of HSA, and emission intensity values measured at 530 nm show a saturation character plotted against the added HSA equivalents. […] At the same time, UV–vis absorbance spectra of InQ3 are only slightly altered by the binding interaction. Enhanced fluorescence of InQ3, and fast binding kinetics confirm the binding of the non-dissociated metal complex to the protein via intermolecular interactions. Fluorometric data can be excellently fitted with the computer program PSEQUAD [43] assuming a single site model (see Fig. 3), and a conditional binding constant of log K′ = 5.0 ± 0.1 was calculated for the HSA – InQ3 adduct. This constant indicates a moderate affinity of the complex on HSA.
Binding at the site I hydrophobic pocket of HSA can be followed via the selective excitation (λEX = 295 nm) of the single Trp (Trp-214) located close to this site. Trp-214 is sensitive to the binding events taking place at or near this site. The InQ3 complex quenched effectively the fluorescence of HSA, and a quenching constant (K’Q) could be computed based on the measured spectra: log K’Q = 5.1 ± 0.1.
Fluorescence studies were implemented by a Fluoromax (Horiba Jobin Yvon) fluorometer in 1 cm quartz cells. Samples contained 1 μM HSA or (apo)Tf and various protein-to-metal complex (or InCl3) ratios (up to complex/HSA = 1:30) were used. The excitation wavelength was 295 nm and 280 nm for HSA and Tf binding studies, respectively; emission intensity was registered between 300 and 450 nm. Intrinsic fluorescence of complex InQ3 was also followed at λEX = 367 nm, and λEM = 450 – 650 nm. In this setup, the complex concentration was ca. 10 or 20 μM, and protein (HSA, (apo)Tf) concentration was varied between 0 and 130 μM, and residual fluorescence of the proteins were subtracted if it was necessary. […] Computer program PSEQUAD [43] was utilized for the calculation of binding constants (K’) for HSA – InQ3 adducts similar to the approach described in our former works. Calculations were always based on data obtained from at least two independent measurements.

Row | SMILES | time to reach chemical equilibrium in serum [1] | binding on HSA (fluorescence intensities additive) ([2]; fluorometry, pH 7.40) | log K’Q (quenching constant) ([2]; Trp-214 quenching, λEX = 295 nm, pH 7.40) | time of the interaction with HSA ([2]; fluorometry) | log K′ (conditional binding constant, HSA adduct) ([2]; fluorometry of the complex, single site model, pH 7.40, 25 °C)
1 | [Ga+3].[O-]c1cccc2cccnc12.[O-]c1cccc2cccnc12.[O-]c1cccc2cccnc12 [GaQ3, Tris(8-Quinolinolato)gallium(III), reference compound] | ≤ 10 min | – | – | – | –
2 | Cc1c([O-])c(=O)ccn1C.Cc1c([O-])c(=O)ccn1C.Cc1c([O-])c(=O)ccn1C.[In+3] [InD3] | – | no considerable binding | – | – | –
3 | [In+3].[O-]c1cccc2cccnc12.[O-]c1cccc2cccnc12.[O-]c1cccc2cccnc12 [InQ3, Tris(8-Quinolinolato)indium(III)] | 240 min | – | 5.1 ± 0.1 | within a few seconds | 5.0–5.1 and 5.0 ± 0.1
